Assay results taken from ChEMBL document CHEMBL4828725 (Eur J Med Chem, 2021).

Tests used:
Rattus norvegicus = species: Rattus norvegicus; assay: Inhibition of rat intestinal maltase using maltose as substrate assessed as release of D-glucose at 1000 uM measured by spectrometric assay
Oryza sativa = assay: Inhibition of rice alpha-glucosidase using p-nitrophenyl glycoside as substrate assessed as release of p-nitrophenol at 1000 uM measured by spectrometric assay
Sus scrofa = species: Sus scrofa; assay: Inhibition of porcine kidney alpha-trehalase using p-nitrophenyl glycoside as substrate assessed as release of p-nitrophenol at 1000 uM measured by spectrometric assay relative to control
[1] = target: T1, Tissue alpha-L-fucosidase (Bos taurus, UniProt Q2KIM0); assay: Inhibition of bovine kidney alpha-L-fucosidase using p-nitrophenyl glycoside as substrate assessed as release of p-nitrophenol measured by spectrometric assay
T1 sequence (Q2KIM0 whole entry): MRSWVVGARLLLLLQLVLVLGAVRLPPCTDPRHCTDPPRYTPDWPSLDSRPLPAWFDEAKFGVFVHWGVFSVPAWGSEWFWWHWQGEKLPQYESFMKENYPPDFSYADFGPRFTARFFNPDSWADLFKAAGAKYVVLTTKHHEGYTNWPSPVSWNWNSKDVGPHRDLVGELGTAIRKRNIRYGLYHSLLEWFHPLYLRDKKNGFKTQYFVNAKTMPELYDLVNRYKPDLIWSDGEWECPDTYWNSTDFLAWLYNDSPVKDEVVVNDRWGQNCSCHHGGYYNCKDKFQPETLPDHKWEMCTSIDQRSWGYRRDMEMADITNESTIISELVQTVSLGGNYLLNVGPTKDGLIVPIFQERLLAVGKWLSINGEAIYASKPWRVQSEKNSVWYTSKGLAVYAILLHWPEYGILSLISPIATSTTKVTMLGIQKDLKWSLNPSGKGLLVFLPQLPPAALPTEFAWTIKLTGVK

[2] = Inhibition of almond beta-glucosidase using p-nitrophenyl glycoside as substrate assessed as release of p-nitrophenol measured by spectrometric assay; set-up: species or system Prunus dulcis
Aspergillus niger = assay: Inhibition of Aspergillus niger amyloglucosidase using p-nitrophenyl glycoside as substrate assessed as release of p-nitrophenol at 1000 uM measured by spectrometric assay relative to control
Penicillium decumbens = assay: Inhibition of Penicillium decumbens alpha-L-rhamnosidase using p-nitrophenyl glycoside as substrate assessed as release of p-nitrophenol at 1000 uM measured by spectrometric assay relative to control
[3] = target: T2, Alpha-mannosidase (Canavalia ensiformis) (UniProt C0HJB3); assay: Inhibition of jack bean alpha-mannosidase using p-nitrophenyl glycoside as substrate assessed as release of p-nitrophenol at 1000 uM measured by spectrometric assay relative to control
T2 sequence (whole entry): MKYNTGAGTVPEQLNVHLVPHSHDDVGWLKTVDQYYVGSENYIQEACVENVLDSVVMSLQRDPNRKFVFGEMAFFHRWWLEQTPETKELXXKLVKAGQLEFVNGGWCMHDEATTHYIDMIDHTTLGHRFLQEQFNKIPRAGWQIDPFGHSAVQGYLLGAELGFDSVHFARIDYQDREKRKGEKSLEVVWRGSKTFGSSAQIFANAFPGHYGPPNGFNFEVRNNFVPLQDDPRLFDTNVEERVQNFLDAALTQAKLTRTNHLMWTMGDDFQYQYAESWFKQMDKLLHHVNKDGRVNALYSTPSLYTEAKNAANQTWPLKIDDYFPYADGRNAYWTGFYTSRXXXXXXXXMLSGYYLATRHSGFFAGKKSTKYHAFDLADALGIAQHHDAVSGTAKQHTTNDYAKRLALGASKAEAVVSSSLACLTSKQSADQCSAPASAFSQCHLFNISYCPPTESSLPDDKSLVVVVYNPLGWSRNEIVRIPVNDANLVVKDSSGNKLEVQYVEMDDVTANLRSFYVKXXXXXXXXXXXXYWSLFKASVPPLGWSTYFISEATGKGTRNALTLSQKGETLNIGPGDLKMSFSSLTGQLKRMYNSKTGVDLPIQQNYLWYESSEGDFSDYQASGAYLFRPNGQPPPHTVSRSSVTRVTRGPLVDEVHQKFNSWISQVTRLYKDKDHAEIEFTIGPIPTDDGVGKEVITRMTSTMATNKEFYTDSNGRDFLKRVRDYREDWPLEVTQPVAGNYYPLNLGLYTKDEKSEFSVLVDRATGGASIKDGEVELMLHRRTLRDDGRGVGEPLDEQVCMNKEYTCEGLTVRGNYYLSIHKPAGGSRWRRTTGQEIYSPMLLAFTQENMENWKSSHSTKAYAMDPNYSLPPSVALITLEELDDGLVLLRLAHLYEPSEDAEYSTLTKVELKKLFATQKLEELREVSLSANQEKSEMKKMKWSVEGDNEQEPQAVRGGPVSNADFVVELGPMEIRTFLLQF

[4] = Inhibition of bovine liver beta-glucosidase using p-nitrophenyl glycoside as substrate assessed as release of p-nitrophenol measured by spectrometric assay; set-up: species or system Bos taurus
[5] = Inhibition of snail beta-mannosidase using p-nitrophenyl glycoside as substrate assessed as release of p-nitrophenol measured by spectrometric assay; set-up: species or system Helix pomatia
[6] = Inhibition of bovine liver beta-galactosidase using p-nitrophenyl glycoside as substrate assessed as release of p-nitrophenol measured by spectrometric assay; format: tissue-based, Bos taurus
[7] = Inhibition of rice alpha-glucosidase using p-nitrophenyl glycoside as substrate assessed as release of p-nitrophenol measured by spectrometric assay; set-up: species or system Oryza sativa
[8] = Inhibition of porcine kidney alpha-trehalase using p-nitrophenyl glycoside as substrate assessed as release of p-nitrophenol measured by spectrometric assay; set-up: species or system Sus scrofa
[9] = target: Alpha-galactosidase (Coffea arabica) (UniProt Q42656); assay: Inhibition of coffee beans alpha-galactosidase using p-nitrophenyl glycoside as substrate assessed as release of p-nitrophenol at 1000 uM measured by spectrometric assay relative to control
Alpha-galactosidase (Coffea arabica), sequence (Q42656 16-378 limits assumed): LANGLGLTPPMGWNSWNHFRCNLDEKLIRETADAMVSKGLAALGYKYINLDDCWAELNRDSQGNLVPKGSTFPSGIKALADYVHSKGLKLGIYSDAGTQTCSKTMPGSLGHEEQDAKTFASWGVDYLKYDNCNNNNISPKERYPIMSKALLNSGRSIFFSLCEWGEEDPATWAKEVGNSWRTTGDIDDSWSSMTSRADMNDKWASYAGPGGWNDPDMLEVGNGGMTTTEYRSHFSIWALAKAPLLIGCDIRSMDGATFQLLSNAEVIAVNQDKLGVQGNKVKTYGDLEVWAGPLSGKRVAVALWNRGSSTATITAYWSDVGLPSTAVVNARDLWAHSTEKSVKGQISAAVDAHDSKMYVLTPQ

[10] = target: T3, Sucrase-isomaltase, intestinal (Rattus norvegicus, UniProt P23739); assay: Inhibition of rat intestinal isomaltase using p-nitrophenyl glycoside as substrate assessed as release of p-nitrophenol measured by spectrometric assay
T3 sequence (P23739 1-1013 limits assumed): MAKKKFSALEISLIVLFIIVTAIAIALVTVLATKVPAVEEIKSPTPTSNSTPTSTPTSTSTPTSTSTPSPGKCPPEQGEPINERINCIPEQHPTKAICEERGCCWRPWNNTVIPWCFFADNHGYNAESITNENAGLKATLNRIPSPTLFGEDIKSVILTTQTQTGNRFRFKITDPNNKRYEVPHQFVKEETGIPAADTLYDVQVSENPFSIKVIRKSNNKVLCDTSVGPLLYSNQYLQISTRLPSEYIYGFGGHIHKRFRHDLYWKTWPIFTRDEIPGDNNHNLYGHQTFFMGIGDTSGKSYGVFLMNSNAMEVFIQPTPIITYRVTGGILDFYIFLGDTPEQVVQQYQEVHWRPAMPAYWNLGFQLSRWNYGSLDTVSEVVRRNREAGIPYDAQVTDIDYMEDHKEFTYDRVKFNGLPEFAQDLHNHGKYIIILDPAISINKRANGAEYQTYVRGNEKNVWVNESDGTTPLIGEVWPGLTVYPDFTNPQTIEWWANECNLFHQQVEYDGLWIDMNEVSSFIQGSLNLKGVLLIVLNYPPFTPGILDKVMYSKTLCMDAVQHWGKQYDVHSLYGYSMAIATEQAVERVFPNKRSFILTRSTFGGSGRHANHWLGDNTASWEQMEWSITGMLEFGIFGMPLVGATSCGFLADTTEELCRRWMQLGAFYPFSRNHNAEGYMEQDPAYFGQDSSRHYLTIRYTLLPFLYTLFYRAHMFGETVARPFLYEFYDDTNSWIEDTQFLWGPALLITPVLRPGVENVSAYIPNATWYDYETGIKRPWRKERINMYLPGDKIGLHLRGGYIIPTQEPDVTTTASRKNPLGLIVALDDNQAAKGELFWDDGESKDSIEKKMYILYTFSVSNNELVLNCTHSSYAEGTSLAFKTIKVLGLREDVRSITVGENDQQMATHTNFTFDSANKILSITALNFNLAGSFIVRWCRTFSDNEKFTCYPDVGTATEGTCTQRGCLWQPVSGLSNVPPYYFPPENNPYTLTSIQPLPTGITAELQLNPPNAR
T3 sequence (P23739 1014-1841 limits assumed): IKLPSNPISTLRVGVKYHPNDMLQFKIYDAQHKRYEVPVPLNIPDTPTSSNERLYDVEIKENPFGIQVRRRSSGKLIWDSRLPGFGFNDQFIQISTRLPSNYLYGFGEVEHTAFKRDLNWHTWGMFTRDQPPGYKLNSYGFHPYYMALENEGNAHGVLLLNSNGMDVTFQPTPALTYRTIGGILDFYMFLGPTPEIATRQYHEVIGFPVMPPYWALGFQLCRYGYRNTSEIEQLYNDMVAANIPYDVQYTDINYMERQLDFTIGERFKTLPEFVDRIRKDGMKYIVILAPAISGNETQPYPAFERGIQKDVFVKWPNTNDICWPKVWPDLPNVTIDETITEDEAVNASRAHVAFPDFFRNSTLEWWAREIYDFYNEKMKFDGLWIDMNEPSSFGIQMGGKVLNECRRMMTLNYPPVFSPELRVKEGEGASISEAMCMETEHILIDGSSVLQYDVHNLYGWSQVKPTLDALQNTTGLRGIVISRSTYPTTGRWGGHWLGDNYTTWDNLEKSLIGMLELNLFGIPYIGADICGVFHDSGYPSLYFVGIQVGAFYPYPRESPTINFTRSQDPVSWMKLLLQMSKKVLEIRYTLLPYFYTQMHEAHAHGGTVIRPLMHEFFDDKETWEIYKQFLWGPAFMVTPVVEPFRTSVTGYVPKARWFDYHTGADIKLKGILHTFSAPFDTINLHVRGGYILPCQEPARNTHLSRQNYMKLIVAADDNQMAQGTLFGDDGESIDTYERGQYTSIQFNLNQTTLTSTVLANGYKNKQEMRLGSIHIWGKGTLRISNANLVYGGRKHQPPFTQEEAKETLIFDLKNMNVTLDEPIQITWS

[11] = Inhibition of jack bean alpha-mannosidase using p-nitrophenyl glycoside as substrate assessed as release of p-nitrophenol measured by spectrometric assay; set-up: species or system Canavalia ensiformis
[12] = Inhibition of Aspergillus niger amyloglucosidase using p-nitrophenyl glycoside as substrate assessed as release of p-nitrophenol measured by spectrometric assay
Beta-glucuronidase = Beta-glucuronidase (Escherichia coli (strain K12), UniProt P05804); assay: Inhibition of Escherichia coli beta-glucuronidase using p-nitrophenyl glycoside as substrate assessed as release of p-nitrophenol measured by spectrometric assay
Beta-glucuronidase, sequence (P05804 whole entry): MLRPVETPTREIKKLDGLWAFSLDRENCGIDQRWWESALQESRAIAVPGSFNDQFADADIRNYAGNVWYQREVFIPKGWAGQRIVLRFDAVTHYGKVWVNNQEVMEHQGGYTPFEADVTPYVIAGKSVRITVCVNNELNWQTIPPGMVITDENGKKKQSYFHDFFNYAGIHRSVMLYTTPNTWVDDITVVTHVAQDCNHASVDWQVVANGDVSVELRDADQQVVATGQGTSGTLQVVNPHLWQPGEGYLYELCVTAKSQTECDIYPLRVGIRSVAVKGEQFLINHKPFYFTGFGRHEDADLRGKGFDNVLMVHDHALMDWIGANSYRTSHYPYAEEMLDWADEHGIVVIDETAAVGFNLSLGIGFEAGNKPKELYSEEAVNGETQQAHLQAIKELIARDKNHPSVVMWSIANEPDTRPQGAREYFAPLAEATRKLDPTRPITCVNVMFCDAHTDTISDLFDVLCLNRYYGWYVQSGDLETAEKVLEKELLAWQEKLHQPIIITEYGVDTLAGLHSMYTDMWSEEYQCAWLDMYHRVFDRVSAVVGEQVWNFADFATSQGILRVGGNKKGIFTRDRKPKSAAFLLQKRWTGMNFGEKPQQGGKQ

Helix pomatia = assay: Inhibition of snail beta-mannosidase using p-nitrophenyl glycoside as substrate assessed as release of p-nitrophenol at 1000 uM measured by spectrometric assay relative to control
Prunus dulcis = assay: Inhibition of almond beta-glucosidase using p-nitrophenyl glycoside as substrate assessed as release of p-nitrophenol at 1000 uM measured by spectrometric assay relative to control
[13] = target: T4, Tissue alpha-L-fucosidase (Bos taurus) (UniProt Q2KIM0); assay: Inhibition of bovine kidney alpha-L-fucosidase using p-nitrophenyl glycoside as substrate assessed as release of p-nitrophenol at 1000 uM measured by spectrometric assay relative to control; format: tissue-based
T4 sequence (whole entry): T1 sequence (Q2KIM0 whole entry)

[14] = target: Beta-glucuronidase (Escherichia coli (strain K12)) (UniProt P05804); assay: Inhibition of Escherichia coli beta-glucuronidase using p-nitrophenyl glycoside as substrate assessed as release of p-nitrophenol at 1000 uM measured by spectrometric assay relative to control
Beta-glucuronidase (Escherichia coli (strain K12)), sequence (P05804 whole entry, looked up): as the sequence (P05804 whole entry) above

[15] = target: T3, Sucrase-isomaltase, intestinal; assay: Inhibition of rat intestinal sucrase using p-nitrophenyl glycoside as substrate assessed as release of p-nitrophenol measured by spectrometric assay
[16] = Inhibition of Penicillium decumbens alpha-L-rhamnosidase using p-nitrophenyl glycoside as substrate assessed as release of p-nitrophenol measured by spectrometric assay
[17] = Inhibition of rat intestinal maltase using maltose as substrate assessed as release of D-glucose measured by spectrometric assay
Alpha-galactosidase = Alpha-galactosidase (Coffea arabica, UniProt Q42656); assay: Inhibition of coffee beans alpha-galactosidase using p-nitrophenyl glycoside as substrate assessed as release of p-nitrophenol measured by spectrometric assay
Alpha-galactosidase, sequence (Q42656 whole entry): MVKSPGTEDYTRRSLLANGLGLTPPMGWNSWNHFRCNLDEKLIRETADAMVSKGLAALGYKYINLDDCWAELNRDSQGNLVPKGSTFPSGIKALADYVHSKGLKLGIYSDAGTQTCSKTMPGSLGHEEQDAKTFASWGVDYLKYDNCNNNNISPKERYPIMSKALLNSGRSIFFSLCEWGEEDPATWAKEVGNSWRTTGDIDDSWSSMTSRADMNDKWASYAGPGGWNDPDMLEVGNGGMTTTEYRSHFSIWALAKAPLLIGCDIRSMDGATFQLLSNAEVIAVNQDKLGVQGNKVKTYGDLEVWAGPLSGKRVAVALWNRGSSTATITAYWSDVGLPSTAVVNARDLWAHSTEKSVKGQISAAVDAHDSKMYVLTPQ

Bos taurus [18] = species: Bos taurus; assay: Inhibition of bovine liver beta-galactosidase using p-nitrophenyl glycoside as substrate assessed as release of p-nitrophenol at 1000 uM measured by spectrometric assay relative to control
Bos taurus [19] = species: Bos taurus; assay: Inhibition of bovine liver beta-glucosidase using p-nitrophenyl glycoside as substrate assessed as release of p-nitrophenol at 1000 uM measured by spectrometric assay relative to control; format: tissue-based
[20] = Inhibition of Agrobacterium sp beta-glucosidase using p-nitrophenyl beta-glucoside as substrate assessed as release of p-nitrophenol measured by plate reader assay

Structure (SMILES) | inhibition (Rattus norvegicus) [%] | inhibition (Sus scrofa) [%] | IC50 [1] | IC50 [2] | inhibition (Aspergillus niger) [%] | inhibition (Penicillium decumbens) [%] | inhibition [3] [%] | IC50 [5] | IC50 [8] | inhibition [9] [%] | IC50 [10] | IC50 [11] | IC50 [12] | IC50 (Beta-glucuronidase) | inhibition (Helix pomatia) [%] | inhibition (Prunus dulcis) [%] | inhibition [13] [%] | inhibition [14] [%] | IC50 [15] | IC50 [16] | other results
CCCCCCCC[C@@]1(CO)NC[C@H](O)[C@@H](O)[C@@H]1O.Cl | 23.2 | 0 | Not Active | Not Active | 0.83 | 6 | 9.6 | Not Active | Not Active | 3.3 | Not Active | Not Active | Not Active | Not Active | 4.9 | 14.8 | 5.5 | 9.4 | Not Active | Not Active | inhibition (Bos taurus [18]): 44.9%; IC50 [4]: Not Active; IC50 [6]: Not Active; IC50 ([7]; read-out: IC50): 123 µM; inhibition (Bos taurus [19]): 19%; IC50 [17]: 224 µM; IC50 (Alpha-galactosidase): Not Active
C#Cc1ccc(C(=O)OCCCCCCN2C[C@H](O)[C@@H](O)[C@H](O)[C@H]2CO)cc1 |  |  |  |  |  |  |  |  |  |  |  |  |  |  |  |  |  |  |  |  | IC50 [20]: 2.2 µM
CCCCCCCCCCC[C@@]1(CO)NC[C@H](O)[C@@H](O)[C@@H]1O.Cl | 4.6 | 0 | Not Active | Not Active | 0 | 4.8 | 3.3 | Not Active | Not Active | 1.6 | Not Active | Not Active | Not Active | Not Active | 0 | 5.2 | 1.1 | 5.3 | Not Active | Not Active | inhibition (Oryza sativa): 17.6%; IC50 [4]: Not Active; IC50 ([6]; read-out: IC50): 100 µM; IC50 [7]: Not Active; inhibition (Bos taurus [19]): 29.8%; IC50 [17]: 765 µM; IC50 (Alpha-galactosidase): Not Active

Second part, led by results:

inhibition (Rattus norvegicus) [%] | inhibition (Sus scrofa) [%] | IC50 [1] | IC50 [2] | inhibition (Aspergillus niger) [%] | inhibition (Penicillium decumbens) [%] | inhibition [3] [%] | IC50 [5] | IC50 [8] | inhibition [9] [%] | IC50 [10] | IC50 [11] | IC50 [12] | IC50 (Beta-glucuronidase) | inhibition (Helix pomatia) [%] | inhibition (Prunus dulcis) [%] | inhibition [13] [%] | inhibition [14] [%] | IC50 [15] | IC50 [16] | Structure (SMILES) | other results
2.3 | 0 | Not Active | Not Active | 0 | 1.2 | 3.3 | Not Active | Not Active | 0 | Not Active | Not Active | Not Active | Not Active | 0.5 | 7.6 | 0 | 13.9 | Not Active | Not Active | CCCCCCCCCCCC[C@@]1(CO)NC[C@H](O)[C@@H](O)[C@@H]1O.Cl | inhibition (Oryza sativa): 33.6%; IC50 ([4]; read-out: IC50): 47 µM; IC50 ([6]; read-out: IC50): 17 µM; IC50 [7]: Not Active; IC50 [17]: 660 µM; IC50 (Alpha-galactosidase): Not Active
11.6 | 3.4 | Not Active | Not Active | 13.2 | 1.5 | 6.7 | Not Active | Not Active | 8 | Not Active | Not Active | Not Active | Not Active | 2.8 | 2.5 | 0.9 | 17.2 | Not Active | Not Active | CCCCCC[C@@]1(CO)NC[C@H](O)[C@@H](O)[C@@H]1O.Cl | inhibition (Bos taurus [18]): 24.8%; IC50 [4]: Not Active; IC50 [6]: Not Active; IC50 ([7]; read-out: IC50): 257 µM; inhibition (Bos taurus [19]): 15.7%; IC50 [17]: 272 µM; IC50 (Alpha-galactosidase): Not Active
15.1 | 5.3 | Not Active | Not Active | 0 | 0 | 1.2 | Not Active | Not Active | 1.7 | Not Active | Not Active | Not Active | Not Active | 4 | 4.4 | 0 | 3.9 | Not Active | Not Active | CCCCC[C@@]1(CO)NC[C@H](O)[C@@H](O)[C@@H]1O.Cl | inhibition (Bos taurus [18]): 18.7%; IC50 [4]: Not Active; IC50 [6]: Not Active; IC50 ([7]; read-out: IC50): 48 µM; inhibition (Bos taurus [19]): 9.2%; IC50 [17]: 156 µM; IC50 (Alpha-galactosidase): Not Active
